Assay results from EP1691802B1, “METHODS FOR THE AMELIORATION OF ENVIRONMENTAL OXIDANT STRESS AND THE REGULATION OF BENEFICIAL GENES” (The Ester C Company, priority 2003, dated 2005).

Test system: white blood cells
Set-up: species or system human
Details: in vivo, po
Experimental: Three vitamin C preparations and a placebo were tested to determine white blood cell bioavailability and pharmacokinetics in a double-blind, randomized, crossover study in human subjects. The three vitamin C and placebo compositions were • "Test A": ascorbic acid USP • "Test B": a mineral ascorbate (calcium ascorbate) + vitamin C metabolites (principally calcium threonate), in which the metabolites are produced in situ by a process such as disclosed in US Patent 4,822,816 • "Test C": a mineral ascorbate (calcium ascorbate) + vitamin C metabolites (calcium threonate), manufactured by adding calcium threonate to calcium ascorbate. • "Test D": placebo All three vitamin C compositions were standardized to 1000mg vitamin C equivalent per dose tablets.
A total of 15 subjects (all male between the ages of 21 and 50) were divided into three groups of five and were entered into a four-way crossover design study to minimize inter-subject variability, i.e., in which the subjects act as their own controls. […]
Vitamin C levels of the urine, plasma and white blood cells were determined by HPLC. The areas under the curve (AUC) for the ascorbic acid levels detected in white cells, plasma and urine was determined for each group using the trapezoidal rule (Selby, 1979). The data and the standard deviation was analyzed using repeated-measures analysis of variance ([…]). […]

- levels of white cell vitamin C in smokers: lowest levels
SMILES: O=C1O[C@H]([C@@H](O)CO)C(O)=C1O [Test A, ascorbic acid]
